The subject of experiment [1] is TRP2-induced ERK1/2 phosphorylation. The experiment in a line: Effect of inhibitors on TRP2-induced ERK1/2 phosphorylation, HEK293 cells. The format is cell-based, Homo sapiens.
For experiment [2] the test system is unchanged. The experiment can be described thus: Effect of inhibitors on TRP2-induced ERK1/2 phosphorylation, Sf21 cells. The format is cell-based, Spodoptera frugiperda.
For experiment [3], the system named is TRP2-mediated cAMP accumulation. The experiment can be described thus: Effect of PTX, CTX, YM-254890 and H89 on TRP2-mediated cAMP accumulation, HEK293 cells expressing TRPR. The format is cell-based, Homo sapiens. A general note: Changes in cAMP serve as a functional read-out for many G protein-coupled receptors.
The subject of experiment [4] is honeybee TRPR. The experiment in a line: Competitive binding of TRPs to TRPR in HEK293 cells (displacement of TAMRA-TRP2/TAMRA-TRP3). Particulars: HEK293. More on the design: species or system Apis mellifera.
The test system of experiment [5] is honeybee TRPR. The experiment in a line: Competitive binding of TRPs to TRPR in Sf21 cells (displacement of TAMRA-TRP2/TAMRA-TRP3). More on the design: species or system Apis mellifera.
Experiment [6] deals with TRPR.
Experiment [7] concerns TRPR. The source holds these as a separate data set.
Experiment [8] relates to TRPR. The source holds these as a separate data set.
Experiment [9] deals with honeybee tachykinin-related peptide receptor (FLAG-TRPR) expressed in HEK293 cells (Apis mellifera).
honeybee tachykinin-related peptide receptor (FLAG-TRPR) expressed in HEK293 cells (Apis mellifera), sequence (A0ACM8RFV8 entry or part of it): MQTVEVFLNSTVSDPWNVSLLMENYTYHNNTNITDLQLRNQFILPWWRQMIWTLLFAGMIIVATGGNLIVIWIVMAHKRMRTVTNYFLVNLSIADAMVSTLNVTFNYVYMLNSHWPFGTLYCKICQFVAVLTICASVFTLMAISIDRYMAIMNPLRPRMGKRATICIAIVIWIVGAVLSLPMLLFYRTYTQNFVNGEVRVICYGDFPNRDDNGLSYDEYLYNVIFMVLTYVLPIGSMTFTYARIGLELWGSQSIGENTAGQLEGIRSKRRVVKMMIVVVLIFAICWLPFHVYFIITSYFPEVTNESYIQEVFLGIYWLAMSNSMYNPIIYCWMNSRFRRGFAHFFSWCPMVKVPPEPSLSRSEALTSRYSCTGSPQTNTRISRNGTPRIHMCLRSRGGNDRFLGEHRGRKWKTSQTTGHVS
Experiment [10] addresses honeybee tachykinin-related peptide receptor (FLAG-TRPR) expressed in Sf21 cells (Apis mellifera).
In experiment [11] the target is honeybee tachykinin-related peptide receptor (FLAG-TRPR) expressed in HEK293 cells (Apis mellifera). The source holds these as a separate data set.
[12] abbreviates: HEK293, 2 hr pretreatment, then TRP2 (10 nM or 1 μM) for 10 min.
Setting [13] is: Sf21, 2 hr pretreatment, then TRP2 (10 nM or 1 μM) for 10 min.

The results in this text go back to publication PMC8016481, “Tachykinin signaling inhibits task-specific behavioral responsiveness in honeybee workers” (eLife, 2021).

Values joined by “and” are separate entries in the source; they are usually repeats but may differ in a detail not shown here. Equal entries are not always repeated. Where two headings read alike, the source gives them in different places. Ends that are not written are not given here.

honeybee tachykinin-related peptide receptor (FLAG-TRPR) expressed in Sf21 cells (Apis mellifera), sequence (A0ACM8RFV8 entry or part of it): as above

In the case of `COc1ccc2c(c1)c(C1=C(c3c[nH]c4ccccc34)C(=O)NC1=O)cn2CCCN(C)C` [Go6983], the “inhibition of TRP/TRPR-mediated ERK activation” value in experiment [1] (setting [12]) and in [2] (setting [13]) was “significant inhibition” each time.

`Cl.Cl.O=S(=O)(NCCNC/C=C/c1ccc(Br)cc1)c1cccc2cnccc12` [H89]: the cAMP accumulation in experiment [3] (Suppl.3B, with TRP2, replicate 1) was determined as 18.636; in experiment [3] (Suppl.3B, with TRP2, replicate 2), 15.003; in [3] (Suppl.3B, with TRP2, replicate 3) it was 13.325; in [3] (Suppl.3B, with ddH2O (no TRP2), replicate 1), 3.551; in experiment [3] (Suppl.3B, with ddH2O (no TRP2), replicate 2) it was 2.309; in experiment [3] (Suppl.3B, with ddH2O (no TRP2), replicate 3), 2.639. The “inhibition of TRP/TRPR-mediated ERK activation” value in [1] (setting [12]) and in experiment [2] (setting [13]) was “significant inhibition” each time.

Take `N#CC(=C(/N)Sc1ccccc1N)/C(C#N)=C(/N)Sc1ccccc1N` [U0126]: the “inhibition of TRP/TRPR-mediated ERK activation” value in experiment [1] (setting [12]) and in [2] (setting [13]) was “significant inhibition” in each case.

In the case of APMGFQGMRa [TRP3], the “competitive binding (residual TAMRA-TRP binding)” value with honeybee TRPR [4] (Log (M) -4, replicate 1) is 5.1560; with honeybee TRPR [4] (Log (M) -4, replicate 2), 4.9306; in the experiment on honeybee TRPR [4] (Log (M) -4, replicate 3) it was 5.6578; in the experiment with honeybee TRPR [4] (Log (M) -5, replicate 1), 9.5134; in the experiment with honeybee TRPR [4] (Log (M) -5, replicate 2), 5.2301; with honeybee TRPR [4] (Log (M) -5, replicate 3), 6.7532. In addition, the “competitive binding (residual TAMRA-TRP binding)” value in the experiment on honeybee TRPR [4] (Log (M) -6, replicate 1) is on record as 19.3191; in the experiment on honeybee TRPR [4] (Log (M) -6, replicate 2), 12.3643; with honeybee TRPR [4] (Log (M) -6, replicate 3), 13.3614; with honeybee TRPR [4] (Log (M) -7, replicate 1), 23.7138; with honeybee TRPR [4] (Log (M) -7, replicate 2), 20.6042; in the experiment with honeybee TRPR [4] (Log (M) -7, replicate 3), 26.4738. Besides, the “competitive binding (residual TAMRA-TRP binding)” value with honeybee TRPR [4] (Log (M) -8, replicate 1) came out at 49.0125; in the experiment on honeybee TRPR [4] (Log (M) -8, replicate 2), 48.4899; in the experiment with honeybee TRPR [4] (Log (M) -8, replicate 3), 40.9813; in the experiment on honeybee TRPR [4] (Log (M) -9, replicate 1), 72.5758; with honeybee TRPR [4] (Log (M) -9, replicate 2) it was 73.4731; in the experiment with honeybee TRPR [4] (Log (M) -9, replicate 3), 66.5477. The “competitive binding (residual TAMRA-TRP binding)” value is given as 84.1720 in the experiment with honeybee TRPR [4] (Log (M) -10, replicate 1); 90.8395 in the experiment on honeybee TRPR [4] (Log (M) -10, replicate 2); 88.1290 with honeybee TRPR [4] (Log (M) -10, replicate 3); 92.0860 in the experiment on honeybee TRPR [4] (Log (M) -11, replicate 1); 97.3869 in the experiment with honeybee TRPR [4] (Log (M) -11, replicate 2); 95.5950 in the experiment with honeybee TRPR [4] (Log (M) -11, replicate 3). For the same molecule, the “competitive binding (residual TAMRA-TRP binding)” value is recorded as 93.1313 in the experiment with honeybee TRPR [4] (Log (M) -12, replicate 1); 100.0000 in the experiment on honeybee TRPR [4] (Log (M) -12, replicate 2); 92.9969 with honeybee TRPR [4] (Log (M) -12, replicate 3). Besides, the competitive binding with honeybee TRPR [5] (Log (M) -4, replicate 1) stood at 26.3879; in the experiment with honeybee TRPR [5] (Log (M) -4, replicate 2), 30.2236; in the experiment with honeybee TRPR [5] (Log (M) -4, replicate 3) it was 35.2235; in the experiment with honeybee TRPR [5] (Log (M) -5, replicate 1) it was 39.1647; in the experiment on honeybee TRPR [5] (Log (M) -5, replicate 2), 34.4531; in the experiment with honeybee TRPR [5] (Log (M) -5, replicate 3), 41.6285. Moreover, the competitive binding with honeybee TRPR [5] (Log (M) -6, replicate 1) came to 40.2510; in the experiment with honeybee TRPR [5] (Log (M) -6, replicate 2), 48.0008; with honeybee TRPR [5] (Log (M) -6, replicate 3), 38.3975; in the experiment with honeybee TRPR [5] (Log (M) -7, replicate 1), 53.7851; in the experiment on honeybee TRPR [5] (Log (M) -7, replicate 2), 58.0646; in the experiment with honeybee TRPR [5] (Log (M) -7, replicate 3), 56.8212. Moreover, the competitive binding came to 73.9138 in the experiment on honeybee TRPR [5] (Log (M) -8, replicate 1); 70.3389 in the experiment on honeybee TRPR [5] (Log (M) -8, replicate 2); 76.0795 with honeybee TRPR [5] (Log (M) -8, replicate 3); 79.8334 in the experiment with honeybee TRPR [5] (Log (M) -9, replicate 1); 84.1204 with honeybee TRPR [5] (Log (M) -9, replicate 2); 84.2025 in the experiment on honeybee TRPR [5] (Log (M) -9, replicate 3). Further, the competitive binding in the experiment on honeybee TRPR [5] (Log (M) -10, replicate 1) is 93.5892; with honeybee TRPR [5] (Log (M) -10, replicate 2), 92.3234; in the experiment with honeybee TRPR [5] (Log (M) -10, replicate 3), 96.9419; in the experiment with honeybee TRPR [5] (Log (M) -11, replicate 1), 93.4444; in the experiment with honeybee TRPR [5] (Log (M) -11, replicate 2) it was 100.0000; in the experiment with honeybee TRPR [5] (Log (M) -11, replicate 3), 96.2965. The competitive binding in the experiment on honeybee TRPR [5] (Log (M) -12, replicate 1) is 95.2946; in the experiment with honeybee TRPR [5] (Log (M) -12, replicate 2), 98.1256; with honeybee TRPR [5] (Log (M) -12, replicate 3), 92.1545. The “increase of cAMP levels” value in the experiment with TRPR [6] was “more than 10 fold”. Further, the “intracellular Ca2+ levels” value in the experiment on TRPR [7] is listed as “rose sharply”.

Regarding cholera toxin [CTX], the cAMP accumulation in [3] was 18.981 and 16.723 and 16.035 and 22.197 and 20.493 and 23.072.

On to corazonin [CRZ, reference compound], for which the “cAMP accumulation” value in the experiment with TRPR [6] and in the experiment on TRPR [8] was “did not induce any detectable cAMP accumulation” each time.

On to pertussis toxin [PTX], for which the “inhibition of TRP/TRPR-mediated ERK activation” value in [1] and in experiment [2] was “had no effect” each time.

In the case of “pigment-dispersing hormone [PDH, reference compound]”, the “cAMP accumulation” value with TRPR [6] and in the experiment on TRPR [8] was “did not induce any detectable cAMP accumulation” in each case.

Regarding “short neuropeptide F [SNF, reference compound]”, the “cAMP accumulation” value in the experiment on TRPR [6] and with TRPR [8] was “did not induce any detectable cAMP accumulation” each time.

Molecule ALMGFQGVR (ends and bridges not checked) [tachykinin-related peptide 2 (TRP2), unlabeled synthetic peptide] gave an EC50 of ERK1/2 phosphorylation (Western blot) in HEK293 cells expressing TRPR, TRP2 from 0.1 pM to 1 μM for 10 min in experiment [9] of 68 nM. Besides, the EC50 of ERK1/2 phosphorylation (Western blot) in Sf21 cells expressing TRPR, TRP2 from 0.1 pM to 1 μM for 10 min in experiment [10] was determined as 1.68 nM. Also, the luciferase activity (pCRE-Luc reporter of cAMP) of HEK293 cells co-transfected with pFLAG-TRPR, 1 μM TRP2, against vehicle vector in [11] was over 10 fold.

Consider APMGFQGMR-NH2 [tachykinin-related peptide 3 (TRP3), unlabeled synthetic peptide], for which, in experiment [11], the luciferase activity (pCRE-Luc reporter of cAMP) of HEK293 cells co-transfected with pFLAG-TRPR, 1 μM TRP3, against vehicle vector was over 10 fold.
